# According to PubChem BioAssay AID248 (DTP/NCI, 2004):
# “And” between values parts separate entries of the source, which are not always exact repeats. Identical values can stand only once. Inconclusive results and toxic doses are left out. Square brackets hold non-standard residues; d marks the D form. Peptide text beside a SMILES is read from it. * marks the point of attachment. ξ: configuration not given here. ξE = NC(CCC(=O)O)C(=O)O; Cbz = O=C(OCc1ccccc1)*
# System: L1210 leukemia ip in BDF1 mice, survival T/C
# Test: NCI In Vivo Anticancer Drug Screen. Data for tumor model L1210 Leukemia (intraperitoneal) in B6D2F1 (BDF1) mice
# Conditions: endpoint: mean survival time, higher = longer survival
# How it was run: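 Mice bearing the transplanted tumor received compound or vehicle. Survival of the treated group was divided by that of the vehicle-treated control group to give the ratio.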
# [1] = dose: 100.0 mg/kg/injection, schedule: Q01DX001 (ip), vehicle: Klucel (hydroxypropylcellulose) (HPC)
# [2] = dose: 100.0 mg/kg/injection, schedule: Q04DX003 (ip), vehicle: Klucel (hydroxypropylcellulose) (HPC)
# [3] = dose: 200.0 mg/kg/injection, schedule: Q01DX001 (ip), vehicle: Klucel (hydroxypropylcellulose) (HPC)
# [4] = dose: 200.0 mg/kg/injection, schedule: Q01DX009 (ip), vehicle: Klucel (hydroxypropylcellulose) (HPC)
# [5] = dose: 200.0 mg/kg/injection, schedule: Q04DX003 (ip), vehicle: Klucel (hydroxypropylcellulose) (HPC)
# [6] = dose: 400.0 mg/kg/injection, schedule: Q01DX001 (ip), vehicle: Klucel (hydroxypropylcellulose) (HPC)
# [7] = dose: 400.0 mg/kg/injection, schedule: Q01DX009 (ip), vehicle: Klucel (hydroxypropylcellulose) (HPC)
# [8] = dose: 400.0 mg/kg/injection, schedule: Q04DX003 (ip), vehicle: Klucel (hydroxypropylcellulose) (HPC)
# [9] = dose: 100.0 mg/kg/injection, schedule: Q01DX009 (ip), vehicle: saline with Tween-80
# [10] = dose: 100.0 mg/kg/injection, schedule: Q04DX003 (ip), vehicle: saline
# [11] = dose: 200.0 mg/kg/injection, schedule: Q01DX009 (ip), vehicle: saline with Tween-80
# [12] = dose: 200.0 mg/kg/injection, schedule: Q04DX003 (ip), vehicle: saline
# [13] = dose: 400.0 mg/kg/injection, schedule: Q04DX003 (ip), vehicle: saline
# [14] = dose: 400.0 mg/kg/injection, schedule: Q01DX001 (ip), vehicle: other
# [15] = dose: 100.0 mg/kg/injection, schedule: Q04DX002 (ip), vehicle: saline with Tween-80
# [16] = dose: 200.0 mg/kg/injection, schedule: Q04DX002 (ip), vehicle: saline with Tween-80
# [17] = dose: 400.0 mg/kg/injection, schedule: Q04DX002 (ip), vehicle: saline with Tween-80
# [18] = dose: 100.0 mg/kg/injection, schedule: Q01DX001 (ip), vehicle: saline
# [19] = dose: 200.0 mg/kg/injection, schedule: Q01DX001 (ip), vehicle: saline
# [20] = dose: 400.0 mg/kg/injection, schedule: Q01DX001 (ip), vehicle: saline
# [21] = dose: 100.0 mg/kg/injection, schedule: Q01DX009 (ip), vehicle: Klucel (hydroxypropylcellulose) (HPC)
# [22] = dose: 50.0 mg/kg/injection, schedule: Q01DX009 (ip), vehicle: Klucel (hydroxypropylcellulose) (HPC)
# [23] = dose: 100.0 mg/kg/injection, schedule: Q01DX001 (ip), vehicle: carboxymethylcellulose (CMC)
# [24] = dose: 200.0 mg/kg/injection, schedule: Q01DX001 (ip), vehicle: carboxymethylcellulose (CMC)
# [25] = dose: 400.0 mg/kg/injection, schedule: Q01DX001 (ip), vehicle: carboxymethylcellulose (CMC)
# [26] = dose: 100.0 mg/kg/injection, schedule: Q04DX003 (ip), vehicle: saline with Tween-80
# [27] = dose: 200.0 mg/kg/injection, schedule: Q04DX003 (ip), vehicle: saline with Tween-80
# [28] = dose: 400.0 mg/kg/injection, schedule: Q04DX003 (ip), vehicle: saline with Tween-80
# [29] = dose: 400.0 mg/kg/injection, schedule: Q01DX009 (ip), vehicle: saline with Tween-80
compound,measurement,setting,value
CC1C(=O)/C(=C/N(C)c2ccccc2)CC1C(=O)O (stereo unspecified),T/C,[1],93 % of control
same,T/C,[2],100 % of control
same,T/C,[3],93 % of control
same,T/C,[4],97 % of control
same,T/C,[5],98 % of control
same,T/C,[6],87 % of control
same,T/C,[7],97 % of control
same,T/C,[8],98 % of control
O=C(CBr)c1cc2ncccc2c2ccccc12,T/C,"dose: 12.5 mg/kg/injection, schedule: Q01DX009 (ip), vehicle: other",90 % of control
same,T/C,"dose: 25.0 mg/kg/injection, schedule: Q01DX009 (ip), vehicle: other",94 % of control
same,T/C,"dose: 50.0 mg/kg/injection, schedule: Q01DX009 (ip), vehicle: other",102 % of control
CC(C)CN(CCCCO)CC(C)C,T/C,[9],95 % of control
same,T/C,[10],100 % of control
same,T/C,[11],103 % of control
same,T/C,[12],100 % of control
same,T/C,[13],100 % of control
CN1CCN(C(=O)CCCCCCCCC(Br)CBr)CC1 (stereo unspecified),T/C,"dose: 15.0 mg/kg/injection, schedule: Q01DX001 (ip), vehicle: saline",103 % of control
O=NN(CCCl)C(=O)NCc1ccc(-c2ccc(CNC(=O)N(CCCl)N=O)cc2)cc1,T/C,"dose: 177.0 mg/kg/injection, schedule: Q01DX001 (ip), vehicle: other",156 % of control and 188 % of control
same,T/C,"dose: 266.0 mg/kg/injection, schedule: Q01DX001 (ip), vehicle: other",180 % of control
same,T/C,[14],194 % of control
same,T/C,"dose: 400.0 mg/kg/injection, schedule: Q01DX009 (ip), vehicle: carboxymethylcellulose (CMC)",159 % of control and 274 % of control
same,T/C,"dose: 600.0 mg/kg/injection, schedule: Q01DX001 (ip), vehicle: other",264 % of control
same,T/C,"dose: 600.0 mg/kg/injection, schedule: Q01DX009 (ip), vehicle: carboxymethylcellulose (CMC)",261 % of control
Cc1cc(=O)c2ccccc2[nH]1,T/C,"dose: 25.0 mg/kg/injection, schedule: Q04DX003 (ip), vehicle: saline",94 % of control
same,T/C,"dose: 50.0 mg/kg/injection, schedule: Q04DX003 (ip), vehicle: saline",100 % of control
same,T/C,[10],94 % of control and 96 % of control
CCC(=O)/C=C/c1ccccc1OC,T/C,[15],97 % of control
same,T/C,[16],105 % of control
same,T/C,[17],105 % of control
Nc1ncnc2c1ncn2C1OCC(O)C(O)C1O (stereo unspecified),T/C,[18],106 % of control
same,T/C,[19],98 % of control
same,T/C,[20],91 % of control
CCOC(=O)NC(CC)c1ccc2oc3ccccc3c2c1 (stereo unspecified),T/C,[1],98 % of control
same,T/C,[21],90 % of control
same,T/C,[3],103 % of control
same,T/C,[4],94 % of control
same,T/C,[6],108 % of control
same,T/C,[7],95 % of control
Cc1ccc(S(=O)(=O)OCC23CCC2(COS(=O)(=O)c2ccc(C)cc2)COC3)cc1 (stereo unspecified),T/C,"dose: 75.0 mg/kg/injection, schedule: Q01DX001 (ip), vehicle: saline",96 % of control
same,T/C,"dose: 75.0 mg/kg/injection, schedule: Q01DX009 (ip), vehicle: saline",94 % of control
same,T/C,"dose: 150.0 mg/kg/injection, schedule: Q01DX001 (ip), vehicle: saline",93 % of control
same,T/C,"dose: 300.0 mg/kg/injection, schedule: Q01DX001 (ip), vehicle: saline",95 % of control
same,T/C,"dose: 300.0 mg/kg/injection, schedule: Q01DX009 (ip), vehicle: saline",89 % of control
O=C(O)CCC(NC(=O)CNC(=O)OCc1ccccc1)C(=O)O (stereo not drawn) (Cbz-Gly-[ξE]-OH),T/C,[22],95 % of control
same,T/C,"dose: 50.0 mg/kg/injection, schedule: Q04DX003 (ip), vehicle: Klucel (hydroxypropylcellulose) (HPC)",92 % of control
same,T/C,[21],97 % of control
same,T/C,[2],96 % of control
same,T/C,[4],93 % of control
same,T/C,[5],93 % of control
CC1(C)N=C(N)N=C(N)N1c1ccc(CCCCc2ccc(Cl)c(S(=O)(=O)F)c2)c(Cl)c1,T/C,"dose: 12.5 mg/kg/injection, schedule: Q01DX009 (ip), vehicle: saline sonified",93 % of control
same,T/C,"dose: 12.5 mg/kg/injection, schedule: Q04DX003 (ip), vehicle: saline sonified",96 % of control
same,T/C,"dose: 25.0 mg/kg/injection, schedule: Q01DX009 (ip), vehicle: saline sonified",94 % of control
same,T/C,"dose: 25.0 mg/kg/injection, schedule: Q04DX003 (ip), vehicle: saline sonified",93 % of control
same,T/C,"dose: 50.0 mg/kg/injection, schedule: Q01DX009 (ip), vehicle: saline sonified",98 % of control
same,T/C,"dose: 50.0 mg/kg/injection, schedule: Q04DX003 (ip), vehicle: saline sonified",93 % of control
O=C(O)C1C2CC3C(C2)C31.[Ag] (stereo unspecified),T/C,"dose: 20.0 mg/kg/injection, schedule: Q01DX009 (ip), vehicle: Klucel (hydroxypropylcellulose) (HPC)",91 % of control
same,T/C,"dose: 20.0 mg/kg/injection, schedule: Q04DX003 (ip), vehicle: Klucel (hydroxypropylcellulose) (HPC)",93 % of control
same,T/C,"dose: 40.0 mg/kg/injection, schedule: Q04DX003 (ip), vehicle: Klucel (hydroxypropylcellulose) (HPC)",89 % of control
CC(=O)OCCc1ccc(C)cc1,T/C,[15],94 % of control
same,T/C,[16],97 % of control
same,T/C,[17],94 % of control
O=C(Cc1ccccc1)NCCc1ccc(-c2ccccc2)cc1,T/C,[23],94 % of control
same,T/C,[24],96 % of control
same,T/C,[25],86 % of control
OC1(c2ccccc2)CC2CC1c1ccccc12 (stereo unspecified),T/C,[23],111 % of control
same,T/C,[24],93 % of control
same,T/C,[25],90 % of control
CCOP(=O)(Cc1ccc(N=Cc2cnc3nc(NC(C)=O)[nH]c(=O)c3n2)cc1)OCC,T/C,"dose: 100.0 mg/kg/injection, schedule: Q01DX001 (ip), vehicle: other",98 % of control
same,T/C,"dose: 200.0 mg/kg/injection, schedule: Q01DX001 (ip), vehicle: other",105 % of control
same,T/C,[14],96 % of control
CC(=O)[C@H]1C[C@@H](CC(=O)O)C1(C)C,T/C,[18],106 % of control
same,T/C,[10],96 % of control
same,T/C,[19],103 % of control
same,T/C,[12],88 % of control
same,T/C,[20],97 % of control
same,T/C,[13],96 % of control
CC(C)CCOC(c1ccc2c(c1)OCO2)C(C)Br (stereo unspecified),T/C,[26],94 % of control
same,T/C,[27],87 % of control
same,T/C,[28],94 % of control
CCc1ccccc1NC(=O)COc1ccc(Cl)cc1,T/C,[21],98 % of control
same,T/C,[4],96 % of control
same,T/C,[7],91 % of control
CCc1ccc(NC(=O)Nc2cccc3ccccc23)cc1,T/C,[21],87 % of control
same,T/C,[2],98 % of control
same,T/C,[4],90 % of control
same,T/C,[5],90 % of control
same,T/C,[7],92 % of control
same,T/C,[8],96 % of control
Cc1cc(C(=O)CCl)c(CN2C(=O)c3ccccc3C2=O)c(=O)n1C,T/C,[9],98 % of control
same,T/C,[26],108 % of control
same,T/C,[11],100 % of control
same,T/C,[27],105 % of control
same,T/C,[29],92 % of control
same,T/C,[28],110 % of control
NC1CCC(OC(=O)C23CC4CC(CC(C4)C2)C3)CC1 (stereo unspecified),T/C,"dose: 100.0 mg/kg/injection, schedule: Q01DX001 (ip), vehicle: saline with Tween-80",94 % of control
CC(=O)Nc1ccccc1C(=O)C(N)=O,T/C,[22],100 % of control
same,T/C,[21],94 % of control
same,T/C,[2],96 % of control
same,T/C,[4],96 % of control
same,T/C,[5],95 % of control
same,T/C,[8],98 % of control
Cc1cc2c3ccccc3nc(C(F)(F)F)n2n1,T/C,[9],97 % of control
same,T/C,[11],103 % of control
same,T/C,[29],95 % of control
N#CCC(N)=S,T/C,"dose: 25.0 mg/kg/injection, schedule: Q04DX002 (ip), vehicle: gum acacia",120 % of control
same,T/C,"dose: 50.0 mg/kg/injection, schedule: Q04DX002 (ip), vehicle: gum acacia",109 % of control
